From US12156862B2, “Medicaments for the treatment of vasoconstriction related diseases or disorders” (Sulfateq B.V., priority 2017, dated 2024)

Experiments:
α1A adrenoceptor = molecular target: T1, α1A adrenoceptor (Homo sapiens, UniProt P35348); assay: Radiolabeled prazosin displacement binding assay in α1A adrenoceptor transgenic CHO cells
T1 construct: expressed in transfected cells; host or cells: CHO-K1
T1 sequence (P35348 1-466): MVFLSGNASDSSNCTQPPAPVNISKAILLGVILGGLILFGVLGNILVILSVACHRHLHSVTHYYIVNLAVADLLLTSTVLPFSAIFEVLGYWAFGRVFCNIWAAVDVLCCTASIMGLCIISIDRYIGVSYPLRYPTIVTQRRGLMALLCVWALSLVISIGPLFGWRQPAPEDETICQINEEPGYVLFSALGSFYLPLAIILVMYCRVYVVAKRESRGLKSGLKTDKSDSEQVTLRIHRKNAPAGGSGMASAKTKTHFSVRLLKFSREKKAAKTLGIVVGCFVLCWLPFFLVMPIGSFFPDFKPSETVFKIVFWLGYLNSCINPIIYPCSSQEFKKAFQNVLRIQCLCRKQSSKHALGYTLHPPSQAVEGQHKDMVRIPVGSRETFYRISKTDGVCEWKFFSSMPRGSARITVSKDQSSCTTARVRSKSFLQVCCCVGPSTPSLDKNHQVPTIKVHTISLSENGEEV
From the text: We therefore explored whether SUL-150 could directly interact with the α1 adrenoceptor as a receptor antagonist.

[1] = molecular target: T2, human α1 adrenoceptor subtype D (Homo sapiens, UniProt P25100); assay: Phenylephrine-induced intracellular calcium (FLIPR Calcium 6) in CHO cells, α1D; format: cell-based; conditions: in words
T2 construct: expressed in transfected cells; host or cells: CHO-K1
T2 sequence (P25100 1-572): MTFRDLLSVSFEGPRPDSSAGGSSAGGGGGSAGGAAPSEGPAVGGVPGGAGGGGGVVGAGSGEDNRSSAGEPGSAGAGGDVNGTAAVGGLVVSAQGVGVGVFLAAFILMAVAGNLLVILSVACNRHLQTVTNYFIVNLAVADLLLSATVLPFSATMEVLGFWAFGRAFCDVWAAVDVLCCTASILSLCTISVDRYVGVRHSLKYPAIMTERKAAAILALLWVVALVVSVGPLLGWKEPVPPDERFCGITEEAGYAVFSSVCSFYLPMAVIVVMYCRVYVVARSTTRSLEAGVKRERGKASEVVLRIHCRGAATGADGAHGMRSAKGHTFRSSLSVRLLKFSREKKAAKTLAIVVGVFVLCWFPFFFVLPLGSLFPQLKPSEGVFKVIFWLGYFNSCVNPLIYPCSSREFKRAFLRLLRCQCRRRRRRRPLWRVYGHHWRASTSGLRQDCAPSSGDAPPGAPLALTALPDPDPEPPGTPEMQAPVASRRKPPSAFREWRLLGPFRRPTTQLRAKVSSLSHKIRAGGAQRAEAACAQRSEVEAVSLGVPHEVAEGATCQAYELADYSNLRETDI
Method: (§1) CHO-K1 cells were stably transfected with a plasmid containing human al-AR subtypes A, B and D in separate cell lines in DMEM-F12 medium with 10% FBS, 1% penicillin-streptomycin and 200 μg/mL Geneticin (G418, Invitrogen, Carlsbad, CA).
(§2) On the next day, CHO cells were treated with either vehicle (0.1% DMSO) or SUL-121 enantiomers for 30 min at 37° C. and stimulated with a 3-fold dilution series of PE (20 μM-100 pM). [Ca^2], was measured using the fluorescent FLIPR Calcium 6 assay kit (Molecular Devices) in immortalized CHO cells stably expressing the α1 adrenoceptor.
(§3) Initially, calcium responses induced by non-cumulative concentration series of phenylephrine were investigated using fluorescent measurements in α1A adrenoceptor-overexpressing CHO cells treated with SUL-150 and SUL-151 (FIG. 4). Fluorescent measurement data was processed and analyzed in SoftMax Pro 7 and expressed as % of baseline AUC with a 3-fold multiplier using an average of first 10 measurement points as baseline.

[2] = molecular target: T3, human α1 adrenoceptor subtype B (Homo sapiens, UniProt P35368); assay: Phenylephrine-induced intracellular calcium (FLIPR Calcium 6) in CHO cells, α1B; format: cell-based; conditions: in words
T3 construct: expressed in transfected cells; host or cells: CHO-K1
T3 sequence (P35368 1-520): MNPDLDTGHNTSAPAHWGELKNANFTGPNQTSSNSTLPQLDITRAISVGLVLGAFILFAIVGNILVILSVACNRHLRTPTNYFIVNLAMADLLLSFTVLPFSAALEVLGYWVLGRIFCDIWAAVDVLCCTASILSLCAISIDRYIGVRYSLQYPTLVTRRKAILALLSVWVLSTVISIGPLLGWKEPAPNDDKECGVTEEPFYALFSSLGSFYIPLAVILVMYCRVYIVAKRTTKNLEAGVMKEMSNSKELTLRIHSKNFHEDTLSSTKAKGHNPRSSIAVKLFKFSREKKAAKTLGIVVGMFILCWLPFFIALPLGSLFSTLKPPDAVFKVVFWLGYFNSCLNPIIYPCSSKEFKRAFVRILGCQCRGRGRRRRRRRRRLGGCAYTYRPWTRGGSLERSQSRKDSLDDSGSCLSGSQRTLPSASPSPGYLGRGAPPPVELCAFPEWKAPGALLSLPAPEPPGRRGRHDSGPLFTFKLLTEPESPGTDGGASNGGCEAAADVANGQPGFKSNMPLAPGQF
Method: as §1, §2, §3

α1 adrenoceptor = assay: Phenylephrine-induced constriction of isolated porcine intrarenal arteries (myography)
Method: Porcine kidneys were obtained from a local slaughterhouse (Kroon Vlees, Gotenburgweg 30, 9723 TM Groningen. The Netherlands) and transported on ice in normal physiological Krebs buffer containing 120 mM NaCl, 6 mM KCl, 2.5 mM CaCl2×2H2O, 1.2 mM MgCl2×6H2O, 1.2 mM NaH2PO4×H2O, 25 mM NaHCO3 and 11.4 mM D-(+)-Glucose monohydrate (all ingredients were purchased from Merck) in ultrapure water.
The renal artery tree was dissected from the kidney, cleaned of surrounding connective tissue and cut into equally-sized ring segments (2 mm in length). In some rings, endothelium denudation was performed by gentle rubbing of the intimal surface with a paper clip. Rings were mounted in organ baths as described previously (Buikema et al., 2000). Arterial rings were washed thoroughly by replacing Krebs buffer and allowed to equilibrate for a period of 60 min under 1.4 g of resting tension before they were assessed for viability by inducing 2 subsequent constrictions with KCl (60 mM). […] After washout and stabilization, rings were treated for 30 minutes by incubation with vehicle (0.1% DMSO), SUL-121, SUL-150 or SUL-151, followed by subsequent incubation with cumulative doses of phenylephrine.
Dose-dependent constriction responses to phenylephrine (10^−8M-10^−4M) were recorded in said isolated porcine intrarenal arteries. Buffer was warmed to 37° C. and aerated with 95% O2 and 5% CO2 before use.
Vascular constriction responses are expressed as percentage of final response to KCl. Data are expressed as mean±SEM. *p<0.05.
To explore the effects of the enantiomers of (6-hydroxy-2,5,7,8-tetramethylchroman-2-yl)(piperazin-1-yl)methanone (SUL-150 and SUL-151) on constriction of isolated porcine intrarenal arteries, cumulative dose response curves to the α1 adrenoceptor agonist phenylephrine (PE) were constructed in the presence and absence of SUL-150 and SUL-151.

[3] = molecular target: T4, human α1 adrenoceptor subtype A (Homo sapiens, UniProt P35348); assay: Phenylephrine-induced intracellular calcium (FLIPR Calcium 6) in CHO cells, α1A; format: cell-based
T4 construct: expressed in transfected cells; host or cells: CHO-K1
T4 sequence (P35348 1-466): T1 sequence (P35348 1-466)
Method: as §1, §2, §3

concentrations at which [7-Methoxy-3H]-prazosin is displaced (α1A adrenoceptor): higher than 10 μM
effect on PE-induced calcium transients, α1 adrenoceptor subtype D [1]: did not affect calcium transients
effect on PE-induced calcium transients, α1 adrenoceptor subtype B [2]: did not affect calcium transients
logEC50 of phenylephrine-induced calcium influx, α1A ([3]; 10 μM test compound): −8.09 ± 0.10
logEC50 of phenylephrine-induced calcium influx, α1A ([3]; 30 μM test compound): −8.09 ± 0.11
logEC50 of phenylephrine-induced calcium influx, α1A ([3]; 100 μM test compound): −7.98 ± 0.10
effect on PE-induced calcium transients, α1 adrenoceptor subtype A ([3]; in words): did not affect calcium transients
Compound: Cc1c(C)c2c(c(C)c1O)CCC(C)(C(=O)N1CCNCC1)O2 (stereo not shown) [SUL-151, (6-hydroxy-2,5,7,8-tetramethylchroman-2-yl)(piperazin-1-yl)methanone]
logEC50 of phenylephrine-induced constriction responses (α1 adrenoceptor; 10 μM test compound): −5.82 ± 0.05^
logEC50 of phenylephrine-induced constriction responses (α1 adrenoceptor; 30 μM test compound): −5.89 ± 0.04
logEC50 of phenylephrine-induced constriction responses (α1 adrenoceptor; 100 μM test compound): −5.77 ± 0.04^
